Patent US6737383B1, “Herbicidal oxadiazolidines” (priority 1999, dated 2004)

Legend:
surinam grass = experiment: Test B pre/postemergence surinam grass; assay type: in vivo, Brachiaria decumbens
Procedure, shortened: (§1)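 Test chemicals in a non-phytotoxic solvent mixture with surfactant were sprayed preemergence onto planted seeds and postemergence onto plants 2 to 18 cm tall (1- to 4-leaf stage). After twelve to sixteen days in a greenhouse, injury was visually rated against untreated controls from 0 (no effect) to 10 (complete control).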

crabgrass = experiment: Test B pre/postemergence crabgrass; assay type: in vivo, Digitaria sanguinalis
Procedure, shortened: as §1

rape = experiment: Test B pre/postemergence rape; assay type: in vivo, Brassica napus
Procedure, shortened: as §1

sugar beet = experiment: Test B pre/postemergence sugar beet; assay type: in vivo, Beta vulgaris
Procedure, shortened: as §1

pigweed = experiment: Test B pre/postemergence pigweed; assay type: in vivo, Amaranthus retroflexus
Procedure, shortened: as §1

purple nutsedge = experiment: Test B pre/postemergence purple nutsedge; assay type: in vivo, Cyperus rotundus
Procedure, shortened: as §1

blackgrass = experiment: Test B pre/postemergence blackgrass; assay type: in vivo, Alopecurus myosuroides
Procedure, shortened: as §1

duck salad = experiment: Test B flood test duck salad; assay type: in vivo, Heteranthera limosa
Procedure, shortened: (§2)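 Read-out is a visual response score from 0 (no effect) to 10 (complete control), assigned by comparison with untreated controls. Treatment was applied at the 2-leaf stage, and plants stayed in the greenhouse for twelve to sixteen days before scoring.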

smallflower flatsedge = experiment: Test B flood test smallflower flatsedge; assay type: in vivo, Cyperus difformis; settings: for S. Flatsedge plant response rating: Postemergence section (flood test species)
Procedure, shortened: as §2

velvetleaf = experiment: Test B pre/postemergence velvetleaf; assay type: in vivo, Abutilon theophrasti
Procedure, shortened: as §1

wheat = experiment: Test B pre/postemergence wheat; assay type: in vivo, Triticum aestivum
Procedure, shortened: as §1

soybean = experiment: Test B pre/postemergence soybean; assay type: in vivo, Glycine max
Procedure, shortened: as §1

corn = experiment: Test B pre/postemergence corn; assay type: in vivo, Zea mays
Procedure, shortened: as §1

rice = experiment: Test B flood test rice; assay type: in vivo, Oryza sativa; settings: for Rice plant response rating: Postemergence section (flood test species)
Procedure, shortened: as §2

wild oat = experiment: Test B pre/postemergence wild oat; assay type: in vivo, Avena fatua
Procedure, shortened: as §1

[1] = Postemergence, Rate 250 g/ha, scale 0 to 10, 0 is no effect, 10 is complete control
[2] = Postemergence, Rate 500 g/ha, scale of 0 to 10 where 0 is no effect and 10 is complete control
[3] = Preemergence, Rate 62 g/ha, scale 0 to 10 (0 no effect, 10 complete control)
[4] = Preemergence, Rate 125 g/ha, scale of 0 to 10 where 0 is no effect and 10 is complete control
[5] = Preemergence, Rate 250 g/ha, scale of 0 to 10 where 0 is no effect and 10 is complete control
[6] = Rate 62 g/ha, Postemergence, scale of 0 to 10 where 0 is no effect and 10 is complete control
[7] = Rate 125 g/ha, Postemergence, scale 0 to 10, 0 is no effect, 10 is complete control
[8] = Preemergence, Rate 250 g/ha, scale 0 to 10, 0 is no effect, 10 is complete control
[9] = Preemergence, Rate 500 g/ha, scale 0 to 10, 0 is no effect, 10 is complete control
[10] = flood test species, listed under Postemergence, Rate 250 g/ha, scale 0 to 10, 0 is no effect, 10 is complete control
[11] = Rate 500 g/ha, scale of 0 to 10 where 0 is no effect and 10 is complete control
[12] = Rate 125 g/ha, scale 0 to 10, 0 is no effect, 10 is complete control

## CC(C)N(C(=O)n1oc(=O)n(CCl)c1=O)c1ccc(Cl)cc1 [Compound 422]
Surinam grass; [1]
  Plant response rating, B. signalgrass: 0
Surinam grass; [2]
  B. signalgrass plant response rating: 0
Surinam grass; [3]
  Plant response rating, B. signalgrass: 0
Surinam grass; [4]
  Plant response rating, B. signalgrass: 0
Surinam grass; [5]
  B. signalgrass plant response rating: 0
Surinam grass; Preemergence, Rate 500 g/ha, scale of 0 to 10 where 0 is no effect and 10 is complete control
  B. signalgrass plant response rating: 0
Surinam grass; [6]
  B. signalgrass plant response rating: 0
Surinam grass; [7]
  B. signalgrass plant response rating: 0
crabgrass; [1]
  Plant response rating, Crabgrass: 0
crabgrass; [2]
  Crabgrass plant response rating: 0
crabgrass; [3]
  Plant response rating, Crabgrass: 0
crabgrass; [4]
  Plant response rating, Crabgrass: 0
crabgrass; [8]
  Crabgrass plant response rating: 0
crabgrass; [9]
  Crabgrass plant response rating: 0
crabgrass; [6]
  Crabgrass plant response rating: 0
crabgrass; [7]
  Crabgrass plant response rating: 0
rape; [1]
  Plant response rating, Rape: 0
rape; [2]
  Rape plant response rating: 0
rape; [3]
  Plant response rating, Rape: 0
rape; [4]
  Plant response rating, Rape: 0
rape; [8]
  Rape plant response rating: 0
rape; [9]
  Rape plant response rating: 0
rape; [7]
  Rape plant response rating: 0
Sugar beet; [1]
  Plant response rating, Sugarbeets: 0
Sugar beet; [2]
  Sugarbeets plant response rating: 0
Sugar beet; [3]
  Plant response rating, Sugarbeets: 0
Sugar beet; [4]
  Plant response rating, Sugarbeets: 0
Sugar beet; [8]
  Sugarbeets plant response rating: 0
Sugar beet; [9]
  Sugarbeets plant response rating: 0
Sugar beet; [7]
  Sugarbeets plant response rating: 0
pigweed; [1]
  Plant response rating, Redroot pigweed: 0
pigweed; [2]
  Redroot pigweed plant response rating: 0
pigweed; [3]
  Plant response rating, Redroot pigweed: 0
pigweed; [4]
  Plant response rating, Redroot pigweed: 0
pigweed; [8]
  Redroot pigweed plant response rating: 0
pigweed; [9]
  Redroot pigweed plant response rating: 0
pigweed; [7]
  Redroot pigweed plant response rating: 0
Purple nutsedge; [1]
  Plant response rating, Nutsedge: 0
Purple nutsedge; [2]
  Nutsedge plant response rating: 0
Purple nutsedge; [3]
  Plant response rating, Nutsedge: 0
Purple nutsedge; [4]
  Plant response rating, Nutsedge: 0
Purple nutsedge; [8]
  Nutsedge plant response rating: 0
Purple nutsedge; [9]
  Nutsedge plant response rating: 0
Purple nutsedge; [7]
  Nutsedge plant response rating: 0
blackgrass; [1]
  Plant response rating, Blackgrass: 0
blackgrass; [2]
  Blackgrass plant response rating: 0
blackgrass; [3]
  Plant response rating, Blackgrass: 0
blackgrass; [4]
  Plant response rating, Blackgrass: 0
blackgrass; [5]
  Blackgrass plant response rating: 0
blackgrass; [9]
  Blackgrass plant response rating: 0
blackgrass; [6]
  Blackgrass plant response rating: 0
blackgrass; [7]
  Blackgrass plant response rating: 0
Duck salad; Postemergence section (flood test species), Rate 500 g/ha, scale of 0 to 10 where 0 is no effect and 10 is complete control
  Ducksalad plant response rating: 0
Duck salad; Rate 62 g/ha, Postemergence (flood test species), scale of 0 to 10 where 0 is no effect and 10 is complete control
  Ducksalad plant response rating: 0
Duck salad; Rate 125 g/ha, Postemergence section (flood test species), scale 0 to 10, 0 is no effect, 10 is complete control
  Ducksalad plant response rating: 0
Duck salad; [10]
  Plant response rating, Ducksalad: 0
Smallflower flatsedge; [11]
  S. Flatsedge plant response rating: 0
Smallflower flatsedge; [12]
  S. Flatsedge plant response rating: 0
Smallflower flatsedge; [10]
  Plant response rating, S. Flatsedge: 0
velvetleaf; [1]
  Plant response rating, Velvetleaf: 0
velvetleaf; [2]
  Velvetleaf plant response rating: 0
velvetleaf; [3]
  Plant response rating, Velvetleaf: 0
velvetleaf; [4]
  Plant response rating, Velvetleaf: 0
velvetleaf; [8]
  Velvetleaf plant response rating: 0
velvetleaf; [9]
  Velvetleaf plant response rating: 0
velvetleaf; [7]
  Velvetleaf plant response rating: 0
wheat; [2]
  Wheat plant response rating: 0
wheat; [3]
  Plant response rating, Wheat: 0
wheat; [4]
  Plant response rating, Wheat: 0
wheat; [8]
  Wheat plant response rating: 0
wheat; [9]
  Wheat plant response rating: 0
wheat; [7]
  Wheat plant response rating: 0
soybean; [1]
  Plant response rating, Soybean: 3
soybean; [2]
  Soybean plant response rating: 4
soybean; [3]
  Plant response rating, Soybean: 0
soybean; [4]
  Plant response rating, Soybean: 0
soybean; [8]
  Soybean plant response rating: 0
soybean; [9]
  Soybean plant response rating: 0
soybean; [7]
  Soybean plant response rating: 3
corn; [1]
  Plant response rating, Corn: 0
corn; [2]
  Corn plant response rating: 0
corn; [3]
  Plant response rating, Corn: 0
corn; [4]
  Plant response rating, Corn: 0
corn; [8]
  Corn plant response rating: 0
corn; [9]
  Corn plant response rating: 0
corn; [6]
  Corn plant response rating: 0
corn; [7]
  Corn plant response rating: 0
rice; [11]
  Rice plant response rating: 0
rice; [12]
  Rice plant response rating: 0
rice; [10]
  Plant response rating, Rice: 0
Wild oat; [2]
  Wild oats plant response rating: 0
Wild oat; [3]
  Plant response rating, Wild oats: 0
Wild oat; [4]
  Plant response rating, Wild oats: 0
Wild oat; [8]
  Wild oats plant response rating: 0
Wild oat; [9]
  Wild oats plant response rating: 3
Wild oat; [7]
  Wild oats plant response rating: 0
